# Laboratory results published in paper PMC12926040, “ADP-ribose is a competitive inhibitor of methanol dehydrogenases from Bacillus methanolicus” (The Journal of Biological Chemistry, 2025).
# B1: BmMDH1 (Bacillus methanolicus MGA3) (protein)
# chain: MTTNFFIPPASVIGRGAVKEVGTRLKQIGAKKALIVTDAFLHSTGLSEEVAKNIREAGVDVAIFPKAQPDPADTQVHEGVDVFKQENCDSLVSIGGGSSHDTAKAIGLVAANGGRINDYQGVNSVEKPVVPVVAITTTAGTGSETTSLAVITDSARKVKMPVIDEKITPTVAIVDPELMVKKPAGLTIATGMDALSHAIEAYVAKGATPVTDAFAIQAMKLINEYLPKAVANGEDIEAREKMAYAQYMAGVAFNNGGLGLVHSISHQVGGVYKLQHGICNSVNMPHVCAFNLIAKTERFAHIAELLGENVAGLSTAAAAERAIVALERINKSFGIPSGYAEMGVKEEDIELLAKNAYEDVCTQSNPRVPTVQDIAQIIKNAM
# B2: BmMDH2 (Bacillus methanolicus MGA3) (protein)
# chain: MTNTQSAFFMPSVNLFGAGSVNEVGTRLADLGVKKALLVTDAGLHGLGLSEKISSIIRAAGVEVSIFPKAEPNPTDKNVAEGLEAYNAENCDSIVTLGGGSSHDAGKAIALVAANGGKIHDYEGVDVSKEPMVPLIAINTTAGTGSELTKFTIITDTERKVKMAIVDKHVTPTLSINDPELMVGMPPSLTAATGLDALTHAIEAYVSTGATPITDALAIQAIKIISKYLPRAVANGKDIEAREQMAFAQSLAGMAFNNAGLGYVHAIAHQLGGFYNFPHGVCNAVLLPYVCRFNLISKVERYAEIAAFLGENVDGLSTYDAAEKAIKAIERMAKDLNIPKGFKELGAKEEDIETLAKNAMKDACALTNPRKPKLEEVIQIIKNAM
# Columns and labels:
# BmMDH2 [1] = target: T1, BmMDH2 (Bacillus methanolicus, UniProt I3E949); assay: Inhibition kinetics of ADPR on formaldehyde reduction (NADH fluorescence); assay type: biochemical, Bacillus methanolicus MGA3; conditions: read-out: KM of BmMDH2, without ADPR, 0 to 150 μM NADH
# Description: Data are shown as means ± SDs (n = 3). Apparent KM values for NAD^+ were determined in the presence of 10 nM ACT (Fig. S6). […] Data are presented as means ± SDs (n = 3). […] The row labels are given as the substance labels. / Panel D: no substance label is printed with the KD and thermodynamic values.
# CbFDH = target: T2, CbFDH (Candida boidinii, UniProt O13437); assay: Inhibition effect of ADPR on type II alcohol dehydrogenases; assay type: biochemical; conditions: 0.5 mM ADPR, 0.5 mM NAD+
# T2 construct: made in house; cell-free extract
# T2 sequence (O13437 1-364): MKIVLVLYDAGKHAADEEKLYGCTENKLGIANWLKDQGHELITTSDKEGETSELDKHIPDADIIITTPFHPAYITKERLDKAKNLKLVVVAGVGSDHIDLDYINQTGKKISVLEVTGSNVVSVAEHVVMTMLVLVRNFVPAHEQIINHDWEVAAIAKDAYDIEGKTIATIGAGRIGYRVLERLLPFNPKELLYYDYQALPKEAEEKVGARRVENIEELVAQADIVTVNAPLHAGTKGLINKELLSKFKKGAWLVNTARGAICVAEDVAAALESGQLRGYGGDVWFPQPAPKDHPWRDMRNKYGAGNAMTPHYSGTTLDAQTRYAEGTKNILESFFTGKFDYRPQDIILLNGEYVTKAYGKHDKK
# BmMDH2 [2] = target: T1, BmMDH2; assay: Isothermal titration calorimetry (ITC) of ADPR binding; parameters: species or system Bacillus methanolicus MGA3; conditions: metal-free BmMDH2
# ACT = ACT (Bacillus methanolicus, UniProt Q8KP10, K162Q/L124I/V88I); conditions: read-out: KM of ACT for ADPR; Tris-HCl pH 8.0, 5 mM MgCl2, 25 °C
# Description: The reaction was terminated by adding 10 μl of 3 M H2SO4 after incubation at 25 ° C for 5 min, followed by analysis using HPLC. The kcat and KM values were determined by fitting the initial velocity versus substrate concentration data to the Michaelis-Menten equation using GraphPad Prism.
# Reactions were terminated by adding 10 μL of 3 M H2SO4 after incubation at 25 °C for 5 minutes. Data are means ± SDs of three measurements.
# [3] = system: isopropanol dehydrogenase (IPADHM4); assay type: biochemical, Brucella suis
# BaAlaDH = assay: Inhibition effect of ADPR on type II alcohol dehydrogenases; assay type: biochemical, Bacillaceae; conditions: 0.5 mM ADPR, 0.5 mM NAD+
# BmMDH2 [4] = target: T1, BmMDH2; assay: Kinetic assay of MDHs, ethanol dehydrogenation, NAD+ varied; assay type: biochemical, Bacillus methanolicus MGA3; conditions: 1.0 μM ADPR
# [5] = target: T3, glucose dehydrogenase (BmGDH) (Priestia megaterium, UniProt P40288); assay: Inhibition effect of ADPR on type II alcohol dehydrogenases; assay type: biochemical, Bacillus megaterium IWG3; conditions: 0.5 mM ADPR, 0.5 mM NAD+
# T3 construct: made in house; cell-free extract
# T3 sequence (P40288 whole entry): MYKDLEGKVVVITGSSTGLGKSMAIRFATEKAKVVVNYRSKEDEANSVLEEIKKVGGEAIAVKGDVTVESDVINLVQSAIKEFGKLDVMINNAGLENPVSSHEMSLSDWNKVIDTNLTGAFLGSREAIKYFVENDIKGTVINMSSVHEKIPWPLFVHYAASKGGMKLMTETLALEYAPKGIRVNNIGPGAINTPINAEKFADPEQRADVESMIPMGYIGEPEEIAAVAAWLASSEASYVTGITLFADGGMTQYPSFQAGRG
# BmMDH2 [6] = target: T1, BmMDH2; assay: Effects of NAM, AMP and ADPR (0.3 mM each) on BmMDH2 activity; assay type: biochemical, Bacillus methanolicus MGA3; conditions: 3 mM NAD+, 40 mM ethanol
# [7] = target: T4, ADH from Saccharomyces cerevisiae (ScADH) (Saccharomyces cerevisiae, UniProt P00330); assay: Inhibition effect of ADPR on type I alcohol dehydrogenase; assay type: biochemical; conditions: 0.5 mM ADPR, 0.5 mM NAD+
# T4 construct: purchased TCI A0200
# T4 sequence (P00330 1-348): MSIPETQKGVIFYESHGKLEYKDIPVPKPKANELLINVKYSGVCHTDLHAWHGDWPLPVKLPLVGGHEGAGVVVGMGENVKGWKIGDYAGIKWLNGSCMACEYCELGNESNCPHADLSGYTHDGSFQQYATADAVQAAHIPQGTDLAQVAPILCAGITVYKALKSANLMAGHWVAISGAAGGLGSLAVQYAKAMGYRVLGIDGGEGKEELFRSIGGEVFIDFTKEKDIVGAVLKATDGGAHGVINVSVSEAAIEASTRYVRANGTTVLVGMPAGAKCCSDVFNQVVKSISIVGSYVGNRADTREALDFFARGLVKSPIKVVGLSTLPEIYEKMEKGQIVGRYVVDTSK
# [8] = substrate: NC(=O)c1ccc[n+]([C@@H]2O[C@H](COP(=O)(O)OP(=O)(O)OC[C@H]3O[C@@H](n4cnc5c(N)ncnc54)[C@H](O)[C@@H]3O)[C@@H](O)[C@H]2O)c1; assay: Kinetic assay of MDHs, ethanol dehydrogenation, NAD+ varied; assay type: biochemical, Bacillus methanolicus MGA3; conditions: other: in the presence of 10 nM ACT, 40 mM ethanol, pH 8.0, 25.0 °C
# Description: NAD^+ and NADH used for the kinetic assays were pretreated with ACT as described above. The reaction mixtures for the ethanol dehydrogenation contained 40 mM ethanol, adequate MDHs, and various concentrations of NAD^+ (ranging from 0 to 48 mM). Enzymatic catalytic rates were determined by monitoring the increase in NADH absorbance at 340 nm. To determine the kinetics of BmMDH2 for the reverse direction (formaldehyde reduction), the reaction mixtures contained 1 mM DTT, 100 nM BmMDH2, 20 mM formaldehyde, 0.5 mM MnCl2, and 0 to 150 μM of NADH. The catalytic rates of formaldehyde reduction were measured by monitoring the decrease of NADH fluorescence, using excitation and emission wavelengths of 340 nm and 535 nm, respectively.
# The kinetic assays were conducted in 200 μL Tris-HCl buffer (100 mM, pH 8.0) at 25 °C. The reaction mixture contained 40 mM ethanol, 0.5 mM MnCl2, 10 nM ACT, 5 mM MgCl2, adequate MDHs (BmMDH1: 500 nM; BmMDH2: 100 nM; BmMDH2S101G: 100 nM; CnMDH2 CT4: 100 nM), and 0 to 48 mM of NAD^+. […] Data are means ± SDs of three measurements.
# [9] = substrate: NC(=O)c1ccc[n+]([C@@H]2O[C@H](COP(=O)(O)OP(=O)(O)OC[C@H]3O[C@@H](n4cnc5c(N)ncnc54)[C@H](O)[C@@H]3O)[C@@H](O)[C@H]2O)c1; assay: as above; assay type: biochemical, Bacillus methanolicus MGA3; conditions: other: in the presence of 10 nM ACT, 40 mM ethanol, pH 8.0, 25.0 °C; remark: listed apart in the source
molecule,measurement,setting,value
NC(=O)C1=CN([C@@H]2O[C@H](COP(=O)(O)OP(=O)(O)OC[C@H]3O[C@@H](n4cnc5c(N)ncnc54)[C@H](O)[C@@H]3O)[C@@H](O)[C@H]2O)C=CC1 [NADH],Km,BmMDH2 [1],6.7 ± 1.7 µM
adenosine diphosphate ribose [ADPR],inhibition by ADPR,CbFDH,None of these enzymes showed significant inhibition
same,binding to EDTA-treated BmMDH2,BmMDH2 [2],no binding
same,Km,ACT,15.9 µM
same,inhibition by ADPR,[3],None of these enzymes showed significant inhibition
same,inhibition by ADPR,BaAlaDH,None of these enzymes showed significant inhibition
same,effect on kinetics of ethanol dehydrogenation,BmMDH2 [4],"decrease in kcat, while KM remained unchanged"
same,inhibition by ADPR,[5],None of these enzymes showed significant inhibition
same,inhibition of BmMDH2 activity,BmMDH2 [6],72%
same,inhibition by ADPR,[7],None of these enzymes showed significant inhibition
B1,Km,[8],2100 ± 1000 µM
B2,Km,[9],720 ± 60 µM
